According to ChEMBL document CHEMBL4043296 (J Med Chem, 2018):

Legend:
[1] = target: T1, Muscarinic acetylcholine receptor M1 (Homo sapiens) (UniProt P11229); assay: Antagonist activity at human SP/Myc epitope-tagged muscarinic M1 receptor expressed in HEK293T cells assessed as inhibition of carbachol-induced RLuc8-fused Galphaq activation preincubated for 15 mins followed by carbachol induction measured after 2 mins by BRET assay; assay type: cell-based; details: HEK-293T
T1 sequence (whole entry): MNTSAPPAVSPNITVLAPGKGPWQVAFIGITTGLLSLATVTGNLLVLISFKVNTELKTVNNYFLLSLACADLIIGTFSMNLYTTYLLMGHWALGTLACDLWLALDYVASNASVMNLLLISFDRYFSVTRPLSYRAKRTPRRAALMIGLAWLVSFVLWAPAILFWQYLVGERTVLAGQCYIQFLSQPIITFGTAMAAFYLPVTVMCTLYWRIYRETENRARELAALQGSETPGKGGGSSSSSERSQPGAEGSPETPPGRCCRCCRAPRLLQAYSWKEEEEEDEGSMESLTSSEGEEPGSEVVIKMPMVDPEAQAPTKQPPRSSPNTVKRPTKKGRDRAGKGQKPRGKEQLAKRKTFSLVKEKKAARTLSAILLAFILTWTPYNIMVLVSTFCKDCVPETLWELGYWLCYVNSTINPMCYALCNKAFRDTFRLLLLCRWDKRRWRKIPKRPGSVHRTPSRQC

[2] = target: T1, Muscarinic acetylcholine receptor M1 (Homo sapiens); assay: Antagonist activity at human SP/Myc epitope-tagged muscarinic M1 receptor expressed in HEK293T cells assessed as inhibition of carbachol-induced mVenus-fused beta-arrestin2 recruitment preincubated for 15 mins followed by carbachol induction measured after 2 mins by BRET assay; assay type: cell-based; details: HEK-293T
[3] = target: T2, Muscarinic acetylcholine receptor M4 (Homo sapiens) (UniProt P08173); assay: Antagonist activity at human SP/Myc epitope-tagged muscarinic M4 receptor expressed in HEK293T cells assessed as inhibition of carbachol-induced RLuc8-fused Galphaq activation preincubated for 15 mins followed by carbachol induction measured after 2 mins by BRET assay; assay type: cell-based; details: HEK-293T
T2 sequence (whole entry): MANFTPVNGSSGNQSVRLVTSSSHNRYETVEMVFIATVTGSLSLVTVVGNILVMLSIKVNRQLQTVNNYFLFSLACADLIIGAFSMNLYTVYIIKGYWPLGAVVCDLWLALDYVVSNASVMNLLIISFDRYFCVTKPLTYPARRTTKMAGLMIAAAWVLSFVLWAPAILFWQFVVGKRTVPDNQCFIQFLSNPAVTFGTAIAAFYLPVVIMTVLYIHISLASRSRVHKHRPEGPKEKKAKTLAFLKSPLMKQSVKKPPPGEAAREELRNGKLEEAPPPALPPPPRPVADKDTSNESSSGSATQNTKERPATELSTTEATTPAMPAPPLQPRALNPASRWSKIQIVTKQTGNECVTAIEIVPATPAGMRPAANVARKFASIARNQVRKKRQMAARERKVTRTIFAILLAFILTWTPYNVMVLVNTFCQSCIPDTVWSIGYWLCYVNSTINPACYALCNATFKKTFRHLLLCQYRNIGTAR

[4] = target: T2, Muscarinic acetylcholine receptor M4 (Homo sapiens); assay: Antagonist activity at human SP/Myc epitope-tagged muscarinic M4 receptor expressed in HEK293T cells assessed as inhibition of carbachol-induced mVenus-fused beta-arrestin2 recruitment preincubated for 15 mins followed by carbachol induction measured after 2 mins by BRET assay; assay type: cell-based; details: HEK-293T
[5] = target: D(2) dopamine receptor (Homo sapiens, UniProt P14416); assay: Displacement of [3H]N-methylspiperone from human dopamine D2 receptor expressed in HEK293 cell membranes after 1 hr by scintillation counting method
[6] = target: D(3) dopamine receptor (Homo sapiens, UniProt P35462); assay: Displacement of [3H]N-methylspiperone from human dopamine D3 receptor expressed in HEK293 cell membranes after 1 hr by scintillation counting method
[7] = target: T3, D(4) dopamine receptor (Homo sapiens, UniProt P21917); assay: Displacement of [3H]N-methylspiperone from human dopamine D4 receptor expressed in HEK293 cell membranes after 1 hr by scintillation counting method
T3 sequence (P21917 whole entry): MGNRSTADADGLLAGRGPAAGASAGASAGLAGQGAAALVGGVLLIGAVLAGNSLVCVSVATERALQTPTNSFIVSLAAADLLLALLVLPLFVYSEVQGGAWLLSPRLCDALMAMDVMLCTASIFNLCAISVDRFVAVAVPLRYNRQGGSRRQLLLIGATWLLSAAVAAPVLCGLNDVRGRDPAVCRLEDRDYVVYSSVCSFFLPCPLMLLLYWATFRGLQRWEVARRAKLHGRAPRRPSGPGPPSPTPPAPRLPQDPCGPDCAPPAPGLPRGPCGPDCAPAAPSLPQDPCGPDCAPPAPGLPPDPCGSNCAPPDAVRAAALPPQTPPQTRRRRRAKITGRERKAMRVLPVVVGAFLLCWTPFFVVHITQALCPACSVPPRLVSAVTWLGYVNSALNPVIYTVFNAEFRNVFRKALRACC

[8] = organism: Homo sapiens; assay: Selectivity ratio of Ki for human dopamine D2 receptor to Ki for human dopamine D4 receptor
[9] = target: T4, Alpha-1A adrenergic receptor (Homo sapiens, UniProt P35348); assay: Displacement of [3H]prazosin from human recombinant alpha-1A adrenergic receptor expressed in CHO cell membranes after 30 mins by liquid scintillation counting method
T4 sequence (P35348 whole entry): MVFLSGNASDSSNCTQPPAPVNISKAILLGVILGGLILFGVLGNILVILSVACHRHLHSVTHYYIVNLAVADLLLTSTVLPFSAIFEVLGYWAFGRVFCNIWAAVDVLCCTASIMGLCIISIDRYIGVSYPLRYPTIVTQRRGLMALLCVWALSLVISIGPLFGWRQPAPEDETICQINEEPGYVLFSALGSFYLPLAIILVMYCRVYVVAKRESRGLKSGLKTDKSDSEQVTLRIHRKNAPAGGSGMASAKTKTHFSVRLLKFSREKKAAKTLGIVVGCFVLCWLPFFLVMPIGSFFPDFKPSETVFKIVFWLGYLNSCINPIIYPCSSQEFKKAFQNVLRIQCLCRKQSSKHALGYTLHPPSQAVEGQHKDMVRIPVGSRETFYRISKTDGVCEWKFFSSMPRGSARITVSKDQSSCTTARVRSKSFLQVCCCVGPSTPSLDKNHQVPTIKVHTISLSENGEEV

[10] = target: T5, Alpha-1B adrenergic receptor (Homo sapiens, UniProt P35368); assay: Displacement of [3H]prazosin from human recombinant alpha-1B adrenergic receptor expressed in CHO cell membranes after 30 mins by liquid scintillation counting method
T5 sequence (P35368 whole entry): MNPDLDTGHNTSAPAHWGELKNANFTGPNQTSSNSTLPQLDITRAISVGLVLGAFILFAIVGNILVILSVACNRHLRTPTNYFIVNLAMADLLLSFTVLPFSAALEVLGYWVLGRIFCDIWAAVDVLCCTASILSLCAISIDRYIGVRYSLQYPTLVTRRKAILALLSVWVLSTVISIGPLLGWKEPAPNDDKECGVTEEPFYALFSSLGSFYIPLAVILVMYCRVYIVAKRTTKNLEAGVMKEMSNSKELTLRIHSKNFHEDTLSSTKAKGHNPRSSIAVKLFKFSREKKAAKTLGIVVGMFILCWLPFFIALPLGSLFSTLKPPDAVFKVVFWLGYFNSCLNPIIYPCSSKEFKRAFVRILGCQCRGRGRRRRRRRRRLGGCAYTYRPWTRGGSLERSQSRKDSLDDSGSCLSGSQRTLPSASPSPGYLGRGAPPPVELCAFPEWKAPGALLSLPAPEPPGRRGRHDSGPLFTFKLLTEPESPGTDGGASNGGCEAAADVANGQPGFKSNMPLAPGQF

[11] = target: T6, Alpha-1D adrenergic receptor (Homo sapiens, UniProt P25100); assay: Displacement of [3H]prazosin from human recombinant alpha-1D adrenergic receptor expressed in CHO cell membranes after 30 mins by liquid scintillation counting method
T6 sequence (P25100 whole entry): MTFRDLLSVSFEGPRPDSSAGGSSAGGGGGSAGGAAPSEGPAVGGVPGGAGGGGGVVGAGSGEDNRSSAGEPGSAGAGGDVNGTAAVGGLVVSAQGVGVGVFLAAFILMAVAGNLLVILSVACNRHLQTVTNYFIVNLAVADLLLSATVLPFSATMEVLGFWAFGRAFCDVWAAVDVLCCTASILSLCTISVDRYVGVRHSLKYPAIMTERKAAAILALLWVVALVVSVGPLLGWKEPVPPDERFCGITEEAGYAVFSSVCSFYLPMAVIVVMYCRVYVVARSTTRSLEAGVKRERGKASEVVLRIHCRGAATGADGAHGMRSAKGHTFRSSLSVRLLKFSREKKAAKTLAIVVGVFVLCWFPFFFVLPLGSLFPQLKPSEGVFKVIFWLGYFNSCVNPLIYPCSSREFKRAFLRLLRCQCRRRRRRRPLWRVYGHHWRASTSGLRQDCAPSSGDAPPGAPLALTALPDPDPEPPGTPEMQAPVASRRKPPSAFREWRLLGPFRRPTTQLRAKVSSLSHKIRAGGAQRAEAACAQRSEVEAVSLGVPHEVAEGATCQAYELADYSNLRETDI

[12] = target: Beta-1 adrenergic receptor (Homo sapiens, UniProt P08588); assay: Displacement of [3H]CGP12177 from human recombinant beta1 adrenergic receptor expressed in HEK293 cell membranes after 90 mins by beta counting method
[13] = target: Beta-2 adrenergic receptor (Homo sapiens, UniProt P07550); assay: Displacement of [3H]CGP12177 from human recombinant beta2 adrenergic receptor expressed in HEK293 cell membranes after 90 mins by beta counting method
[14] = target: Sigma non-opioid intracellular receptor 1 (Cavia porcellus, UniProt Q60492); assay: Displacement of [3H](+)-pentazocine from sigma1 receptor in Hartley guinea pig brain cortex after 120 mins by scintillation counting method
[15] = target: Sodium-dependent dopamine transporter (Rattus norvegicus, UniProt P23977); assay: Displacement of [3H]WIN 35,428 from DAT in Sprague-Dawley rat striatum after 120 mins by scintillation counting method
[16] = target: Sodium-dependent serotonin transporter (Rattus norvegicus, UniProt P31652); assay: Displacement of [3H]-citalopram from SERT in Sprague-Dawley rat midbrain after 60 mins by scintillation counting method
[17] = target: T3, D(4) dopamine receptor; assay: Antagonist activity at human SP/Myc epitope-tagged dopamine D4 receptor expressed in HEK293T cells assessed as inhibition of dopamine-induced RLuc8-fused Galphai1 activation preincubated for 15 mins followed by dopamine induction measured after 2 mins by BRET assay; assay type: cell-based, HEK-293T
[18] = target: T3, D(4) dopamine receptor; assay: Antagonist activity at human SP/Myc epitope-tagged dopamine D4 receptor expressed in HEK293T cells assessed as inhibition of dopamine-induced mVenus-fused beta-arrestin2 recruitment preincubated for 15 mins followed by dopamine induction measured after 2 mins by BRET assay; assay type: cell-based, HEK-293T

Chain of Sodium-dependent serotonin transporter (P31652 whole entry, the tested form may be a part): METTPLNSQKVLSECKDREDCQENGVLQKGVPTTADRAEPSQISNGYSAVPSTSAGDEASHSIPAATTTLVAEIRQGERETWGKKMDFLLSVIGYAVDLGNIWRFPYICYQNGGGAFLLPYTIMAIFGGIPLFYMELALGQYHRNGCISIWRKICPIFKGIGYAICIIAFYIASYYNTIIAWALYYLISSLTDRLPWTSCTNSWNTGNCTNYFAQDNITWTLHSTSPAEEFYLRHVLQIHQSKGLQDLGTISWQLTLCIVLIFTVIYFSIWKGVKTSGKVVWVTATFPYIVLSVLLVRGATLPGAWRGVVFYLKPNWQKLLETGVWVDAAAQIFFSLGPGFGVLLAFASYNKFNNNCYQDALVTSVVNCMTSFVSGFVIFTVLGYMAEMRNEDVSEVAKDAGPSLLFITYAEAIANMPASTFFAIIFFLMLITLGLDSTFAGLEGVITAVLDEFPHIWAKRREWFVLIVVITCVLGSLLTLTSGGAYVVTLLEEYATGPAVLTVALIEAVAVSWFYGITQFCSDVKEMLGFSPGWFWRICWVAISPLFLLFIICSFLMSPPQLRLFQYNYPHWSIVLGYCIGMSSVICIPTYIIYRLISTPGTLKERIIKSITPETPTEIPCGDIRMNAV
Chain of Sodium-dependent dopamine transporter (P23977 whole entry): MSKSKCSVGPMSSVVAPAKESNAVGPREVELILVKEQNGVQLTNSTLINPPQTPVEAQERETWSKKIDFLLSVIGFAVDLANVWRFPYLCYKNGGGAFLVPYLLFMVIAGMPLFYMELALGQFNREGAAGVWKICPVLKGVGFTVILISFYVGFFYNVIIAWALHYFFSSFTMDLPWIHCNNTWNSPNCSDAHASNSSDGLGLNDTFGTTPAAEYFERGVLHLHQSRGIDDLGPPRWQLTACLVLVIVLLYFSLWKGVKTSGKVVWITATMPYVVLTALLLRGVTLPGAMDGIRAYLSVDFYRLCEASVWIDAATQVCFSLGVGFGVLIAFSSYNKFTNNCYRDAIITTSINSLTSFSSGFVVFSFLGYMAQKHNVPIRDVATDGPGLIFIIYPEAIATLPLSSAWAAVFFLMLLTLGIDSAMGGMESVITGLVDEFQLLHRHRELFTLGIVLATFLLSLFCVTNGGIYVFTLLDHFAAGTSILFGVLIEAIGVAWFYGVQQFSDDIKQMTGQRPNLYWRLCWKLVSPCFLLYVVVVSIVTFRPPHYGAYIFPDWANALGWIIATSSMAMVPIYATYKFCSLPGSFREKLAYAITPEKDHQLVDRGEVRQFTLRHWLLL
Chain of D(3) dopamine receptor (P35462 whole entry): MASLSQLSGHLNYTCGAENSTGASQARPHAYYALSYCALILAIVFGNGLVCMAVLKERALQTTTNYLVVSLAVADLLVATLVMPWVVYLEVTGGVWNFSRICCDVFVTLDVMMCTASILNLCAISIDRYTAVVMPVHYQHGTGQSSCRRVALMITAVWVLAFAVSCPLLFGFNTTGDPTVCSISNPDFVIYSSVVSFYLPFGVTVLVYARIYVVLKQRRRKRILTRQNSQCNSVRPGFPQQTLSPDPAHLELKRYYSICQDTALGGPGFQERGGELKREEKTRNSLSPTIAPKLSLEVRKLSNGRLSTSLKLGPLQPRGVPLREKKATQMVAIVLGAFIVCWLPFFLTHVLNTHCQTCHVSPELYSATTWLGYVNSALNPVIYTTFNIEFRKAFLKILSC
Chain of Beta-2 adrenergic receptor (P07550 whole entry): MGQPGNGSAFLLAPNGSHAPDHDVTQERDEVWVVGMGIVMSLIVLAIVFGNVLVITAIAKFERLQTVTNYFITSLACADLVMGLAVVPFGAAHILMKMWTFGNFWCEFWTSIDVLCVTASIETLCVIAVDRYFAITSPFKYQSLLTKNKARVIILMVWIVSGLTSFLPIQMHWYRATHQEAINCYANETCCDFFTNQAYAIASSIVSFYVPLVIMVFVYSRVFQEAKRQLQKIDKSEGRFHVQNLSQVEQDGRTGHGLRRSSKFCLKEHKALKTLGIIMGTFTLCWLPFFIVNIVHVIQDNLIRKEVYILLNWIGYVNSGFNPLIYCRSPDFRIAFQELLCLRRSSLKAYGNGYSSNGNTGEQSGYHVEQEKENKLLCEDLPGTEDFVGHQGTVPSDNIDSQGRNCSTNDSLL
Chain of Sigma non-opioid intracellular receptor 1 (Q60492 whole entry): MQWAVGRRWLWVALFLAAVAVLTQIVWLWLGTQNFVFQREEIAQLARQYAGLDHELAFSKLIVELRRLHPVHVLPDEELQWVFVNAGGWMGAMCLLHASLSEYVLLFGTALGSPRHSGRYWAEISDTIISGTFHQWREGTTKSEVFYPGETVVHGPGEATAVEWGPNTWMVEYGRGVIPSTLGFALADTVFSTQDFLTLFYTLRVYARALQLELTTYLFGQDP
Chain of D(2) dopamine receptor (P14416 whole entry): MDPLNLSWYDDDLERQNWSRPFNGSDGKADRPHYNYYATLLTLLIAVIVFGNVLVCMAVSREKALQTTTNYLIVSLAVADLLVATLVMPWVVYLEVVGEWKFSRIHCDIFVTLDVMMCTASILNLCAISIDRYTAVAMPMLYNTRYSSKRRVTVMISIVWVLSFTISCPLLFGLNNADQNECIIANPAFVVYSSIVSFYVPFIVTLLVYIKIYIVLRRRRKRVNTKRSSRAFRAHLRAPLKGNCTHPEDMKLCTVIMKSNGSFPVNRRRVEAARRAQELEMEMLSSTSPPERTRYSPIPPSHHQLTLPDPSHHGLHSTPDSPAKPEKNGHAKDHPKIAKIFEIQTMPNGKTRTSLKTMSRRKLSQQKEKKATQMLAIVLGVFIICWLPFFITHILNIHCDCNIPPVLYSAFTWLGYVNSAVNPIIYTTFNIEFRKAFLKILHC
Chain of Beta-1 adrenergic receptor (P08588 whole entry): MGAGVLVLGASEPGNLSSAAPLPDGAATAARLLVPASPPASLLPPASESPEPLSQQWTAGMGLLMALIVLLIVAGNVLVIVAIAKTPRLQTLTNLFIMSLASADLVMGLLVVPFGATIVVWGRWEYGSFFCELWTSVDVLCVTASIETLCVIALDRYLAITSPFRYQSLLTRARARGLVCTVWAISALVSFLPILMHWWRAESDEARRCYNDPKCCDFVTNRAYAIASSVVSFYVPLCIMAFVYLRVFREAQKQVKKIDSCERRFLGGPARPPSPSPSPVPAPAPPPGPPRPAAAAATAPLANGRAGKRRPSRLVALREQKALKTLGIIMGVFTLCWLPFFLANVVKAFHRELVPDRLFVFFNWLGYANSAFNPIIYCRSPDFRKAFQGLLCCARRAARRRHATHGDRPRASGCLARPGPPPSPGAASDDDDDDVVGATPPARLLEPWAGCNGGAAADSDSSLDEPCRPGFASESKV

SMILES	Imax [1] [%]	Imax [2] [%]	Imax [3] [%]	Imax [4] [%]	Ki [5] [µM]	Ki [6] [µM]	Ki [7] [µM]	Ratio Ki [8]	Ki [9] [µM]	Ki [10] [µM]	Ki [11] [µM]	Ki [12] [µM]	Ki [13] [µM]	Ki [14] [µM]	Ki [15] [µM]	Ki [16] [µM]	IC50 [17] [µM]	IC50 [18] [µM]
CN1[C@@H]2C[C@@H](OC(=O)[C@H](CO)c3ccccc3)C[C@H]1[C@@H]1O[C@H]12	71	76	79	73														
CCCCC1CCN(CCCN2C(=O)CCc3ccccc32)CC1					0.676	0.617	0.000977	691	0.437	0.776	1	47.9	43.7	0.00724	3.39	8.91	0.117	0.00603
